Patent US20240374587A1, “MEDICINE FOR PREVENTION AND TREATMENT OF DISEASES LINKED TO ANTI-OBESITY ACTIVITY” (Shionogi & Co., Ltd., priority 2021, published 2024)
pIC50: −log10 of the molar value.

Legend:
[1] = molecular target: human MGAT2 (Homo sapiens (Human), UniProt Q3SYC2); assay: Measurement of human MGAT2 inhibitory activity; assay type: biochemical; settings: concentration exhibiting 50% enzyme inhibition
Procedure: Solutions of the compounds of the present invention in DMSO were each aliquoted into 0.2·μL portions in a 384-well polystyrene microplate produced by Corning Incorporated, and 5 μL of an enzyme solution prepared with an assay buffer (100 mmol/L phosphate buffer (pH 7.4) containing 2 mmol/L DTT) and 5 μL of a substrate solution (100 mmol/L phosphate buffer (pH 7.4), 30 μmol/L 2-Oleoylglycerol, 10 μmol/L Oleoyl-CoA) were added thereto, and the resultant was stirred and centrifuged, and incubated in a moist chamber at room temperature for 1 hour. After enzymatic reaction, 50 μL of a quenching solution (containing 0.2 μmol/L Diolein-d5, 0.4% formic acid, and 50% isopropanol) containing Internal Standard (IS) was added to terminate the reaction, and the resultant was sealed in a plate produced by Shimadzu GLC Ltd., and then stirred and centrifuged, and measurement was performed by using an electrospray ionization method with a RapidFire360 and Agilent 6550 Q-TOF mass spectrometer. Diolein as a reaction product (P) of 2-Oleoylglycerol as the substrate and an ammonium adduct ion of the IS were detected, and the peak intensity ratio, P/IS, was calculated from the peak heights to evaluate the inhibitory activity. Inhibitory activities with/without addition of enzyme were defined as Control (+)/Control (−), respectively, and the respective % inhibitions were defined as 0% inhibition and 100% inhibition. The inhibitory activity was calculated from the formula below with TIBCO Spotfire (produced by TIBCO Software Inc.) with the peak intensity ratio, P/IS, at the time of addition of the compound of the present invention being as Sample: […]

[2] = system: C57BL/6j mice (DIO mice); assay: Anti-obesity effect test in DIO mice (body weight, food consumption); assay type: in vivo; set-up: concentration or dose not given beside the values; settings: for Rate of decrease in body weight relative to control group: at final administration (Day 0 to Day 35, once a day)
Procedure: The anti-obesity effect of the compound and/or agent according to the present invention was examined by using C57BL/6j mice (DIO mice) provided with a high-fat diet (TestDiet; 58Y1).
Five-week-old male C57BL/6j mice (CLEA Japan. Inc.) were purchased, and grown with feeding of a high-fat diet under 12-hour light-dark cycles for 4 weeks to produce DIO mice. A medium (0.5% HPMC and physiological saline) was administered once a day from 3 weeks before administration of the compound. Randomization was performed for grouping (n=9 to 10) on the basis of body weight and change in food consumption during the period of administration for conditioning. From Day 0 to Day 35, gavage of vehicle (0.5% HPMC and physiological saline) (hereinafter, Control group), gavage of Compound (A) according to the present invention (hereinafter, (A)-administration group), subcutaneous administration of GLP-1 formulation (liraglutide or semaglutide) as Compound (B) according to the present invention (hereinafter, (B)-administration group), or both (hereinafter, the combined administration group) were performed once a day. The GLP-1 formulation was formulated in an increasing dose, and liraglutide and semaglutide were administered at 4 to 20 μg/kg and:3 to 15 μg/kg, respectively, once a day. During the administration period, daily body weight measurement and food consumption measurement once a week were performed.

Sequence of human MGAT2 (Q3SYC2 whole entry): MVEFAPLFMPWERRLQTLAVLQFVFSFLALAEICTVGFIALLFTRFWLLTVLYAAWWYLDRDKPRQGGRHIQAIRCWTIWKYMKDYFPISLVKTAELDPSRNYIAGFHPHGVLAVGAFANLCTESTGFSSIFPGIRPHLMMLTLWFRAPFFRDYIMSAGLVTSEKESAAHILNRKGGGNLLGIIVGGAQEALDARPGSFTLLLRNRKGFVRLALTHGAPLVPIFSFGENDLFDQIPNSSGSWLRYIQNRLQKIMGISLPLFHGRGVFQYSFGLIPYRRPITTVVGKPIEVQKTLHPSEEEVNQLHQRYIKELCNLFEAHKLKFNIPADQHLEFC

| pIC50 [1] | Compound | further results |
| --- | --- | --- |
| 8.56 | CS(=O)(=O)CC(=O)Nc1c2c(nn1CCC1CC1)C[C@]1(CCc3cc(OCC(F)(F)F)ccc31)NC2=O [Compound I-008] | – |
| 8.55 | Cc1ccc(-n2nc3c(c2NC(=O)CS(C)(=O)=O)C(=O)N[C@@]2(CCc4cc(OCC(F)(F)F)ccc42)C3)nc1 [Compound I-236] | – |
| 8.69 | Cc1ccc(-n2nc3c(c2NC(=O)CS(C)(=O)=O)C(=O)N[C@@]2(CCOc4cc(OCC(C)(F)F)ccc42)C3)nc1 [II-151] | – |
| 8.73 | Cc1ccc(-n2nc3c(c2NC(=O)CS(C)(=O)=O)C(=O)N[C@@]2(CCOc4cc(C5CC5)ccc42)C3)nc1 [II-168] | – |
| 8.53 | Cc1ccc(-n2nc3c(c2NC(=O)CS(C)(=O)=O)C(=O)N[C@@]2(CCOc4cc(F)cc(F)c42)C3)nc1 [II-203] | – |
| 9.66 | Cc1cc(-n2nc3c(c2NC(=O)CS(C)(=O)=O)C(=O)N[C@@]2(CCOc4cc(OCCCC(F)(F)F)ccc42)C3)no1 [II-233] | – |
| 8.19 | CS(=O)(=O)CC(=O)Nc1c2c(nn1-c1ccccn1)C[C@]1(CCc3cc(OCCCC(F)(F)F)ccc31)NC2=O [Compound I-023] | – |
| 8.92 | CS(=O)(=O)CC(=O)Nc1c2c(nn1CCCOC(F)(F)F)C[C@@]1(CCc3cc(OCC(F)(F)F)cc(F)c31)NC2=O [II-093] | – |
| 8.67 | CS(=O)(=O)CC(=O)Nc1c2c(nn1-c1ccc(C(F)F)cc1)C[C@]1(CCc3cc(OCC(F)(F)F)ccc31)NC2=O [II-174] | – |
| 8.54 | CS(=O)(=O)CC(=O)Nc1c2c(nn1-c1ccc(C#N)cn1)C[C@]1(CCc3cc(OCC(F)(F)F)ccc31)NC2=O [Compound I-190] | – |
| 8.79 | Cc1ccc(-n2nc3c(c2NC(=O)CS(C)(=O)=O)C(=O)N[C@@]2(CCc4cc(OCCCC(F)(F)F)ccc42)C3)nn1 [II-103] | – |
| 7.74 | CS(=O)(=O)CC(=O)Nc1c2c(nn1-c1ccccc1)C[C@]1(CCc3cc(OCCCC(F)(F)F)ccc31)NC2=O [Compound I-034] | – |
| > 9.00 | CS(=O)(=O)CC(=O)Nc1c2c(nn1-c1ccc(F)cn1)C[C@]1(CCOc3cc(OCC(F)(F)F)ccc31)NC2=O [II-295] | – |
| 8.70 | Cc1ccc(-n2nc3c(c2NC(=O)CS(C)(=O)=O)C(=O)N[C@@]2(CCOc4cc(OCC(F)(F)F)ccc42)C3)nc1 [Compound I-275] | – |
| 8.85 | CS(=O)(=O)CC(=O)Nc1c2c(nn1CCCOC(F)(F)F)C[C@]1(CCc3cc(OCC(F)(F)F)ccc31)NC2=O [Compound I-253] | – |
| 8.94 | CS(=O)(=O)CC(=O)Nc1c2c(nn1-c1ccc(F)c(F)c1)C[C@]1(CCOc3cc(CCC(F)(F)F)ccc31)NC2=O [II-225] | – |
| 8.16 | CS(=O)(=O)CC(=O)Nc1c2c(nn1CCCC(F)(F)F)C[C@@]1(CCc3cc(OCC(F)(F)F)ccc31)NC2=O [Compound I-212] | – |

Continued, compound first:

| Compound | pIC50 [1] | further results |
| --- | --- | --- |
| CCS(=O)(=O)CC(=O)Nc1c(-c2ccc(F)cn2)nn2c1C(=O)N[C@@]1(CCc3cc(F)cc(F)c31)C2 [I′-123] | 8.07 | – |
| Cc1ccc(-c2nn3c(c2NC(=O)CS(C)(=O)=O)C(=O)N[C@@]2(CCc4cc(F)cc(F)c42)C3)nc1 [I′-139] | 7.80 | – |
| CS(=O)(=O)CC(=O)Nc1c(-c2ccc(C3CC3)cn2)nn2c1C(=O)N[C@@]1(CCc3cc(F)cc(F)c31)C2 [I′-141] | 8.19 | – |
| CCCCCCCCCCCCCCCC(=O)N[C@@H](CCC(=O)NCCCC[C@H](NC(=O)[C@H](C)NC(=O)[C@H](C)NC(=O)[C@H](CCC(N)=O)NC(=O)CNC(=O)[C@H](CCC(=O)O)NC(=O)[C@H](CC(C)C)NC(=O)[C@H](Cc1ccc(O)cc1)NC(=O)[C@H](CO)NC(=O)[C@H](CO)NC(=O)[C@@H](NC(=O)[C@H](CC(=O)O)NC(=O)[C@H](CO)NC(=O)[C@@H](NC(=O)[C@H](Cc1ccccc1)NC(=O)[C@@H](NC(=O)CNC(=O)[C@H](CCC(=O)O)NC(=O)[C@H](C)NC(=O)[C@@H](N)Cc1cnc[nH]1)[C@@H](C)O)[C@@H](C)O)C(C)C)C(=O)N[C@@H](CCC(=O)O)C(=O)N[C@@H](Cc1ccccc1)C(=O)N[C@H](C(=O)N[C@@H](C)C(=O)N[C@@H](Cc1c[nH]c2ccccc12)C(=O)N[C@@H](CC(C)C)C(=O)N[C@H](C(=O)N[C@@H](CCCNC(=N)N)C(=O)NCC(=O)N[C@@H](CCCNC(=N)N)C(=O)NCC(=O)O)C(C)C)[C@@H](C)CC)C(=O)O [Liraglutide, liraglutide, reference compound] | – | Rate of decrease in food consumption relative to control group ([2]; 1st week of administration, liraglutide study): 4.6%; Rate of decrease in food consumption relative to control group ([2]; 2nd week of administration, liraglutide study): 9.4%; Rate of decrease in food consumption relative to control group ([2]; 3rd week of administration, liraglutide study): 3.1%; Rate of decrease in food consumption relative to control group ([2]; 4th week of administration, liraglutide study): 2.4%; Rate of decrease in food consumption relative to control group ([2]; 5th week of administration, liraglutide study): 1.5%; Rate of decrease in body weight relative to control group ([2]; liraglutide study (FIG. 1)): 4.2% |
| CCS(=O)(=O)CC(=O)Nc1c(-c2ccc(C)cn2)nn2c1C(=O)N[C@@]1(CCOc3cc(F)cc(F)c31)C2 [I′-136] | 8.30 | – |
| Cc1ccc(-c2nn3c(c2NC(=O)CS(C)(=O)=O)C(=O)N[C@@]2(CCc4cc(OCC(F)(F)F)ccc42)C3)nc1 [I′-006] | 8.65 | – |
| Cc1ccc(-c2nn3c(c2NC(=O)CS(C)(=O)=O)C(=O)N[C@@]2(CCOc4cc(F)cc(F)c42)C3)nc1 [I′-124] | 8.19 | – |
| CS(=O)(=O)CC(=O)Nc1c(-c2ccc(F)c(F)c2)nn2c1C(=O)N[C@@]1(CCc3cc(OCC(F)(F)F)ccc31)C2 [I′-033] | 9.14 | – |
| CS(=O)(=O)CC(=O)Nc1c(-c2ccc(Cl)cn2)nn2c1C(=O)N[C@@]1(CCOc3cc(F)cc(F)c31)C2 [I′-137] | 8.82 | – |
| semaglutide [reference compound] | – | Rate of decrease in food consumption relative to control group ([2]; 1st week of administration, semaglutide study): 8.5%; Rate of decrease in food consumption relative to control group ([2]; 2nd week of administration, semaglutide study): 33.1%; Rate of decrease in food consumption relative to control group ([2]; 3rd week of administration, semaglutide study): 18.2%; Rate of decrease in food consumption relative to control group ([2]; 4th week of administration, semaglutide study): 10.9%; Rate of decrease in food consumption relative to control group ([2]; 5th week of administration, semaglutide study): 6.0%; Rate of decrease in body weight relative to control group ([2]; semaglutide study (FIG. 2)): 18.0% |
| CS(=O)(=O)CC(=O)Nc1c(-c2ccc(F)c(F)c2)nn2c1C(=O)N[C@@]1(CCOc3cc(F)cc(F)c31)C2 [I′-126] | 8.80 | – |
| CS(=O)(=O)CC(=O)Nc1c(-c2ccc(F)c(F)c2)nn2c1C(=O)N[C@@]1(CCc3cc(F)cc(F)c31)C2 [I′-130] | 8.35 | – |
| CS(=O)(=O)CC(=O)Nc1c(-c2ccc(Cl)cn2)nn2c1C(=O)N[C@]1(CCc3cc(F)cc(F)c31)C2 [I′-147] | 8.46 | – |
| CS(=O)(=O)CC(=O)Nc1c(-c2ccc(C3CC3)cn2)nn2c1C(=O)N[C@@]1(CCOc3cc(F)cc(F)c31)C2 [I′-143] | 8.46 | – |
| CS(=O)(=O)CC(=O)Nc1c(-c2ccc(C(F)F)cn2)nn2c1C(=O)N[C@@]1(CCOc3cc(F)cc(F)c31)C2 [I′-153] | 8.65 | – |
| CS(=O)(=O)CC(=O)Nc1c(-c2ccc(F)cc2)nn2c1C(=O)N[C@@]1(CCOc3cc(OCC(F)(F)F)ccc31)C2 [I′-066] | 9.07 | – |
| CS(=O)(=O)CC(=O)Nc1c(-c2ccc(C(F)F)cc2)nn2c1C(=O)N[C@@]1(CCOc3cc(F)cc(F)c31)C2 [I′-145] | 8.54 | – |
| CS(=O)(=O)CC(=O)Nc1c(-c2ccc(Cl)cn2)nn2c1C(=O)N[C@@]1(CCc3cc(F)cc(F)c31)C2 [I′-142] | 8.54 | – |
| CS(=O)(=O)CC(=O)Nc1c(CCC(F)(F)F)nn2c1C(=O)N[C@@]1(CCc3cc(OCC(F)(F)F)ccc31)C2 [I′-058] | 8.01 | – |
| CS(=O)(=O)CC(=O)Nc1c(-c2ccc(Cl)cn2)nn2c1C(=O)N[C@]1(CCOc3cc(F)cc(F)c31)C2 [I′-151] | 8.27 | – |
| CS(=O)(=O)CC(=O)Nc1c(-c2ccc(F)cc2)nn2c1C(=O)N[C@]1(CCc3cc(OCC(F)(F)F)ccc31)C2 [I′-079] | 8.95 | – |
| CCOc1ccc2c(c1)OCC[C@]21Cn2nc(-c3ccc(F)c(F)c3)c(NC(=O)CS(C)(=O)=O)c2C(=O)N1 [I′-133] | 8.86 | – |
| CS(=O)(=O)CC(=O)Nc1c(CCC2CC2)nn2c1C(=O)N[C@@]1(CCc3cc(OCC(F)(F)F)ccc31)C2 [I′-046] | 8.93 | – |
| Cc1ccc(-c2nn3c(c2NC(=O)CS(C)(=O)=O)C(=O)N[C@@]2(CCc4cc(OCC(F)(F)F)ccc42)C3)cc1 [I′-020] | 8.71 | – |
